# According to US10611760B2, “Therapeutic compounds as inhibitors of the orexin-1 receptor” (C4X Discovery Limited, priority 2014, dated 2020):
# Target: T1, hOX1R (Homo sapiens, UniProt O43613)
# T1 sequence (O43613 1-425): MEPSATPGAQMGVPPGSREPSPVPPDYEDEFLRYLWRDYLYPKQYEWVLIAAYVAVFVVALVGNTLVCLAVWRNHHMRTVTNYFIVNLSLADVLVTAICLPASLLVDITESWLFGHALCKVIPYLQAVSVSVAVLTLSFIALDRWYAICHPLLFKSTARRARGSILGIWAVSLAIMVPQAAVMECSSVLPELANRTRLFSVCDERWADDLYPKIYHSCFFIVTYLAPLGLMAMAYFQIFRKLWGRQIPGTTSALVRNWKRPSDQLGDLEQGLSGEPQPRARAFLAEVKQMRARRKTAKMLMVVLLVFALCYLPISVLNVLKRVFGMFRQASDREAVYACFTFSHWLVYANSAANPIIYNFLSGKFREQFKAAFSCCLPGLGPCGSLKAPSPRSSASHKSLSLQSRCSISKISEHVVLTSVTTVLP
# Assay: Intracellular calcium measurements using division-arrested cells, OX1
# Type: cell-based
# Settings: agonist orexin A at 2×EC50, * = single experiment, otherwise average of at least two, read-out: pIC50 OX1 (converted)
# Description: Intracellular Calcium Measurements Using Division-arrested Cells (Table 1):
# Test compounds are prepared as 10 mM stock solutions in DMSO, then serially diluted in half log concentrations with DMSO followed by dilution with assay buffer (HBSS (Sigma-Aldrich, H8264) containing 20 mM HEPES (Sigma-Aldrich, H4034), 0.1% (w/v) bovine serum albumin and adjusted to pH 7.4) to a top final assay concentration of 10 μM.
# Human OX1 (CT-A474) and human OX2 (CT-A475) receptor-expressing division-arrested cells are plated into 384 well black, clear bottom, cell-bind plates at a seeding density of 10,000 cells/50 μL growth media. The seeded plates are incubated at 37° C. in air supplemented with 5% CO2 for 16 hrs.
# The media is removed and replaced with 30 μL/well of cell loading buffer (a vial of Calcium 5 is solubilized in 22 mL of assay buffer to which a freshly prepared 250 mM solution of probenecid in 1:1 1M NaOH to assay buffer (200 μL) is added) and the cells incubated for 1 hr at 37° C. The serially diluted test compounds (10 μL/well) are added to the plate, which is then incubated for 10 mins and placed in a FlexStation III reader.
row,SMILES,IC50 [nM]
1,"Cc1nc(-c2ccccc2)c(C(=O)N[C@H](CNc2ccc(Cl)cn2)CC(C)C)s1 [Example 7, (S)—N-(1-((5-chloropyridin-2-yl)amino)-4-methylpentan-2-yl)-2-methyl-4-phenylthiazole-5-carboxamide]",1580
2,"CC[C@@H](CNc1ccc(Cl)cn1)N(C)C(=O)c1cc(C(F)(F)F)ccc1-n1nccn1 [Example 17, (S)—N-(1-((5-chloropyridin-2-yl)amino)butan-2-yl)-N-methyl-2-(2H-1,2,3-triazol-2-yl)-5-(trifluoromethyl)benzamide]",200
3,"CC[C@@H](CNc1ccc(Cl)cn1)N(C)C(=O)c1nc(C)ccc1-n1nccn1 [Example 21, (S)—N-(1-((5-chloropyridin-2-yl)amino)butan-2-yl)-N,6-dimethyl-3-(2H-1,2,3-triazol-2-yl)picolinamide]",7.94
4,"CC(C)[C@@H](COCc1ccc(F)cc1)N(C)C(=O)c1ccccc1-c1ccccc1 [Example 29, (S)—N-(1-((4-fluorobenzyl)oxy)-3-methylbutan-2-yl)-N-methyl-[1,1′-biphenyl]-2-carboxamide]",1580
5,"CC(C)[C@@H](COc1nccc(-c2ccccc2)n1)N(C)C(=O)c1ccccc1-c1ccccc1 [Example 32, (S)—N-methyl-N-(3-methyl-1-((4-phenylpyrimidin-2-yl)oxy)butan-2-yl)-[1,1′-biphenyl]-2-carboxamide]",200
6,"CC(C)[C@@H](CNc1ccc(Cl)cn1)N(C)C(=O)c1cn(C)c2ccccc12 [Example 50, (S)—N-(1-((5-chloropyridin-2-yl)amino)-3-methylbutan-2-yl)-N,1-dimethyl-1H-indole-3-carboxamide]",631
7,"CC[C@@H](CNc1cccc(C)n1)N(C)C(=O)c1cc(Cl)ccc1-n1nccn1 [Example 53, (S)-5-chloro-N-methyl-N-(1-((6-methylpyridin-2-yl)amino)butan-2-yl)-2-(2H-1,2,3-triazol-2-yl)benzamide]",251
8,"CC[C@@H](CNc1ccc(C(F)(F)F)nc1)N(C)C(=O)c1nc(C)ccc1-n1nccn1 [Example 55, (S)—N,6-dimethyl-3-(2H-1,2,3-triazol-2-yl)-N-(1-((6-(trifluoromethyl)pyridin-3-yl)amino)butan-2-yl)picolinamide]",79.4

# Second part, the compound after the results:
row,IC50 [nM],SMILES
1,200,"CC(C)[C@@H](COc1ncc2ccccc2n1)N(C)C(=O)c1ccccc1-c1ccccc1 [Example 31, (S)—N-methyl-N-(3-methyl-1-(quinazolin-2-yloxy)butan-2-yl)-[1,1′-biphenyl]-2-carboxamide]"
2,100,"CC(C)[C@@H](COc1nc2ccccc2n1C)N(C)C(=O)c1ccccc1-c1ccccc1 [Example 33, (S)—N-methyl-N-(3-methyl-1-((1-methyl-1H-benzo[d]imidazol-2-yl)oxy)butan-2-yl)-[1,1′-biphenyl]-2-carboxamide]"
3,63.1,"CC(C)[C@@H](CNc1ncc2ccccc2n1)N(C)C(=O)c1ccccc1-c1ccccc1 [Example 36, (S)—N-methyl-N-(3-methyl-1-(quinazolin-2-ylamino)butan-2-yl)-[1,1′-biphenyl]-2-carboxamide]"
4,79.4,"Cc1cc(C)nc(NC[C@H](C(C)C)N(C)C(=O)c2ccccc2-c2ccccc2)n1 [Example 37, (S)—N-(1-((4,6-dimethylpyrimidin-2-yl)amino)-3-methylbutan-2-yl)-N-methyl-[1,1′-biphenyl]-2-carboxamide]"
